Test results from the NIST ThermoML archive (doi:10.1007/s10765-009-0602-6).
± gives the expanded uncertainty stated by the source.

Assay: molar heat capacity at constant volume; xn = mol fraction of the nth substance listed
Conditions: Fluid (supercritical or subcritical phases), isochoric heat capacity, x1 = 0.2607

N [ammonia] + O
Conditions	molar heat capacity at constant volume [J/K/mol]
605.3 K, Mass density=329 kg/m3	82.4 ± 3.3
605.39 K, Mass density=147.43 kg/m3	55.23 ± 2.2
605.39 K, Mass density=329 kg/m3	83.73 ± 3.4
605.47 K, Mass density=147.43 kg/m3	52.57 ± 2.1
605.56 K, Mass density=329 kg/m3	84.16 ± 3.4
605.64 K, Mass density=147.43 kg/m3	54.75 ± 2.2
605.73 K, Mass density=147.43 kg/m3	55.07 ± 2.2
605.82 K, Mass density=147.43 kg/m3	55.82 ± 2.2
605.9 K, Mass density=147.43 kg/m3	54.48 ± 2.2
606.33 K, Mass density=195.99 kg/m3	62.19 ± 2.5
606.41 K, Mass density=195.99 kg/m3	62.19 ± 2.5
606.41 K, Mass density=376.89 kg/m3	80.52 ± 3.2
606.5 K, Mass density=195.99 kg/m3	62.44 ± 2.5
606.58 K, Mass density=376.89 kg/m3	81.48 ± 3.3
606.66 K, Mass density=195.99 kg/m3	62.01 ± 2.5
606.67 K, Mass density=376.89 kg/m3	83.04 ± 3.3
606.75 K, Mass density=195.99 kg/m3	62.31 ± 2.5
606.76 K, Mass density=376.89 kg/m3	82.08 ± 3.3
606.84 K, Mass density=195.99 kg/m3	62.12 ± 2.5
606.84 K, Mass density=376.89 kg/m3	79.68 ± 3.2
607.69 K, Mass density=342.18 kg/m3	76.36 ± 3.1
607.78 K, Mass density=309.95 kg/m3	83.5 ± 3.3
607.78 K, Mass density=342.18 kg/m3	81.1 ± 3.3
607.86 K, Mass density=342.18 kg/m3	78.56 ± 3.2
607.86 K, Mass density=376.89 kg/m3	79.35 ± 3.2
607.87 K, Mass density=309.95 kg/m3	80.85 ± 3.2
607.95 K, Mass density=309.95 kg/m3	86.43 ± 3.5
607.95 K, Mass density=342.18 kg/m3	76.04 ± 3.1
607.95 K, Mass density=376.89 kg/m3	80.25 ± 3.2
608.04 K, Mass density=309.95 kg/m3	82.99 ± 3.3
608.04 K, Mass density=376.89 kg/m3	78.87 ± 3.2
608.12 K, Mass density=376.89 kg/m3	77.04 ± 3.1
608.19 K, Mass density=160.07 kg/m3	52.92 ± 2.1
608.21 K, Mass density=309.95 kg/m3	84.23 ± 3.4
608.21 K, Mass density=376.89 kg/m3	75.92 ± 3
608.29 K, Mass density=376.89 kg/m3	79.42 ± 3.2
608.38 K, Mass density=376.89 kg/m3	76.18 ± 3.1
608.4 K, Mass density=160.07 kg/m3	53.56 ± 2.1
608.54 K, Mass density=160.07 kg/m3	51.75 ± 2.1
608.63 K, Mass density=160.07 kg/m3	53.4 ± 2.1
608.72 K, Mass density=160.07 kg/m3	52.1 ± 2.1
608.81 K, Mass density=160.07 kg/m3	52.48 ± 2.1
608.9 K, Mass density=160.07 kg/m3	52.35 ± 2.1
609.06 K, Mass density=195.99 kg/m3	62.14 ± 2.5
609.14 K, Mass density=195.99 kg/m3	62.71 ± 2.5
609.23 K, Mass density=195.99 kg/m3	62.28 ± 2.5
609.3 K, Mass density=195.99 kg/m3	63.31 ± 2.5
609.4 K, Mass density=195.99 kg/m3	62.65 ± 2.5
609.4 K, Mass density=320.33 kg/m3	87.43 ± 3.5
609.48 K, Mass density=195.99 kg/m3	63.19 ± 2.5
609.48 K, Mass density=294.44 kg/m3	91.17 ± 3.6
609.48 K, Mass density=320.33 kg/m3	84.26 ± 3.4
609.57 K, Mass density=294.44 kg/m3	89.27 ± 3.6
609.57 K, Mass density=320.33 kg/m3	85.97 ± 3.4
609.65 K, Mass density=294.44 kg/m3	87.71 ± 3.5
609.65 K, Mass density=308.35 kg/m3	76.86 ± 3.1
609.65 K, Mass density=320.33 kg/m3	80.69 ± 3.3
609.74 K, Mass density=195.99 kg/m3	62.31 ± 2.5
609.74 K, Mass density=294.44 kg/m3	89.93 ± 3.6
609.74 K, Mass density=320.33 kg/m3	83.43 ± 3.3
609.82 K, Mass density=294.44 kg/m3	89.02 ± 3.6
609.82 K, Mass density=308.35 kg/m3	74.71 ± 3
609.91 K, Mass density=308.35 kg/m3	78.67 ± 3.2
609.99 K, Mass density=308.35 kg/m3	77.82 ± 3.1
610.08 K, Mass density=308.35 kg/m3	76.77 ± 3.1
610.17 K, Mass density=312.91 kg/m3	84.03 ± 3.4
610.25 K, Mass density=312.91 kg/m3	83.02 ± 3.3
610.33 K, Mass density=312.91 kg/m3	81.99 ± 3.3
610.42 K, Mass density=311.19 kg/m3	84.41 ± 3.4
610.42 K, Mass density=312.91 kg/m3	81.69 ± 3.3
610.51 K, Mass density=311.19 kg/m3	81.05 ± 3.2
610.51 K, Mass density=312.91 kg/m3	81.85 ± 3.3
610.53 K, Mass density=311.19 kg/m3	82.17 ± 3.3
610.59 K, Mass density=307.35 kg/m3	83.84 ± 3.4
610.59 K, Mass density=312.91 kg/m3	80.77 ± 3.2
610.68 K, Mass density=307.35 kg/m3	83.61 ± 3.3
610.76 K, Mass density=307.35 kg/m3	85.1 ± 3.4
610.77 K, Mass density=311.19 kg/m3	80 ± 3.2
610.84 K, Mass density=311.19 kg/m3	82.42 ± 3.3
610.85 K, Mass density=307.35 kg/m3	81.92 ± 3.3
610.93 K, Mass density=307.35 kg/m3	80.84 ± 3.2
611.02 K, Mass density=301.94 kg/m3	85.7 ± 3.4
611.02 K, Mass density=307.35 kg/m3	83.41 ± 3.3
611.1 K, Mass density=301.94 kg/m3	86.38 ± 3.5
611.1 K, Mass density=307.35 kg/m3	81.26 ± 3.2
611.19 K, Mass density=299.79 kg/m3	81.78 ± 3.3
611.23 K, Mass density=301.94 kg/m3	84.69 ± 3.4
611.27 K, Mass density=299.79 kg/m3	82.1 ± 3.3
611.35 K, Mass density=230.31 kg/m3	80.27 ± 3.2
611.35 K, Mass density=301.94 kg/m3	83.16 ± 3.3
611.36 K, Mass density=299.79 kg/m3	80.3 ± 3.2
611.44 K, Mass density=230.31 kg/m3	81.01 ± 3.2
611.44 K, Mass density=299.79 kg/m3	81.57 ± 3.3
611.44 K, Mass density=301.94 kg/m3	83.38 ± 3.3
611.52 K, Mass density=230.31 kg/m3	77.59 ± 3.1
611.53 K, Mass density=299.79 kg/m3	80.94 ± 3.2
611.57 K, Mass density=230.31 kg/m3	78.33 ± 3.1
611.61 K, Mass density=299.79 kg/m3	79.86 ± 3.2
611.61 K, Mass density=301.94 kg/m3	85.13 ± 3.4
611.8 K, Mass density=230.31 kg/m3	77.07 ± 3.1
612.29 K, Mass density=342.18 kg/m3	78.23 ± 3.1
612.46 K, Mass density=376.89 kg/m3	76.4 ± 3.1
612.55 K, Mass density=342.18 kg/m3	77.21 ± 3.1
612.55 K, Mass density=376.89 kg/m3	78.49 ± 3.1
612.63 K, Mass density=342.18 kg/m3	78.71 ± 3.1
612.63 K, Mass density=376.89 kg/m3	74.83 ± 3
612.8 K, Mass density=342.18 kg/m3	78.26 ± 3.1
612.8 K, Mass density=376.89 kg/m3	75.58 ± 3
612.89 K, Mass density=376.89 kg/m3	77.5 ± 3.1
615.18 K, Mass density=160.07 kg/m3	57.18 ± 2.3
615.27 K, Mass density=160.07 kg/m3	57.36 ± 2.3
615.35 K, Mass density=160.07 kg/m3	59.17 ± 2.4
615.52 K, Mass density=160.07 kg/m3	57.77 ± 2.3
615.61 K, Mass density=160.07 kg/m3	57.15 ± 2.3
615.69 K, Mass density=160.07 kg/m3	58.32 ± 2.3
615.78 K, Mass density=160.07 kg/m3	59.81 ± 2.4
615.86 K, Mass density=311.19 kg/m3	80.59 ± 3.2
615.94 K, Mass density=311.19 kg/m3	82.26 ± 3.3
615.94 K, Mass density=312.91 kg/m3	84.14 ± 3.4
616.03 K, Mass density=311.19 kg/m3	78.26 ± 3.1
616.03 K, Mass density=312.91 kg/m3	81.62 ± 3.3
616.2 K, Mass density=309.95 kg/m3	81.9 ± 3.3
616.2 K, Mass density=311.19 kg/m3	79.08 ± 3.2
616.2 K, Mass density=312.91 kg/m3	78.12 ± 3.1
616.24 K, Mass density=329 kg/m3	79.1 ± 3.2
616.28 K, Mass density=309.95 kg/m3	81.26 ± 3.2
616.29 K, Mass density=312.91 kg/m3	77.14 ± 3.1
616.37 K, Mass density=309.95 kg/m3	80.5 ± 3.2
616.37 K, Mass density=311.19 kg/m3	78.05 ± 3.1
616.37 K, Mass density=312.91 kg/m3	80.69 ± 3.2
616.45 K, Mass density=309.95 kg/m3	78.62 ± 3.2
616.45 K, Mass density=329 kg/m3	75.46 ± 3
616.54 K, Mass density=329 kg/m3	77.16 ± 3.1
616.55 K, Mass density=309.95 kg/m3	82.93 ± 3.3
616.62 K, Mass density=329 kg/m3	76.27 ± 3.1
616.69 K, Mass density=299.79 kg/m3	82.29 ± 3.3
616.71 K, Mass density=329 kg/m3	76.77 ± 3.1
616.84 K, Mass density=299.79 kg/m3	80.34 ± 3.2
616.95 K, Mass density=299.79 kg/m3	81.41 ± 3.2
617.05 K, Mass density=299.79 kg/m3	82.13 ± 3.3
617.13 K, Mass density=299.79 kg/m3	79.98 ± 3.2
617.31 K, Mass density=299.79 kg/m3	80.5 ± 3.2
617.46 K, Mass density=299.79 kg/m3	80.93 ± 3.2
618.23 K, Mass density=342.18 kg/m3	78.08 ± 3.1
618.32 K, Mass density=342.18 kg/m3	77.48 ± 3.1
618.5 K, Mass density=342.18 kg/m3	78.3 ± 3.1
618.57 K, Mass density=342.18 kg/m3	78.49 ± 3.1
618.66 K, Mass density=342.18 kg/m3	76.77 ± 3.1
619.76 K, Mass density=297.6 kg/m3	76.26 ± 3.1
619.93 K, Mass density=297.6 kg/m3	75.1 ± 3
620.01 K, Mass density=297.6 kg/m3	77.64 ± 3.1
620.1 K, Mass density=297.6 kg/m3	76.82 ± 3.1
624.74 K, Mass density=160.07 kg/m3	61.66 ± 2.5
624.83 K, Mass density=160.07 kg/m3	63.49 ± 2.5
624.99 K, Mass density=160.07 kg/m3	62.99 ± 2.5
625.08 K, Mass density=160.07 kg/m3	60.95 ± 2.4
625.16 K, Mass density=160.07 kg/m3	64.25 ± 2.6
633.07 K, Mass density=160.07 kg/m3	67.64 ± 2.7
633.16 K, Mass density=160.07 kg/m3	68.71 ± 2.8
633.33 K, Mass density=160.07 kg/m3	67.18 ± 2.7
633.49 K, Mass density=160.07 kg/m3	68.49 ± 2.7
633.58 K, Mass density=160.07 kg/m3	67.41 ± 2.7
633.66 K, Mass density=160.07 kg/m3	67.98 ± 2.7
